The record followed here is BindingDB's records for doi:10.1073/pnas.121170598 (Merck Research Laboratories, 2001).

Bridge positions count the residues as written; N and C are the ends. Peptide text beside a SMILES is read from it.

Test [1] has as its target Melanin-concentrating hormone receptor 1 (Homo sapiens, UniProt Q99705).
Test [2] deals with Melanin-concentrating hormone receptor 2 (Homo sapiens, UniProt Q969V1).
Sequence of Melanin-concentrating hormone receptor 2 (Q969V1 whole entry): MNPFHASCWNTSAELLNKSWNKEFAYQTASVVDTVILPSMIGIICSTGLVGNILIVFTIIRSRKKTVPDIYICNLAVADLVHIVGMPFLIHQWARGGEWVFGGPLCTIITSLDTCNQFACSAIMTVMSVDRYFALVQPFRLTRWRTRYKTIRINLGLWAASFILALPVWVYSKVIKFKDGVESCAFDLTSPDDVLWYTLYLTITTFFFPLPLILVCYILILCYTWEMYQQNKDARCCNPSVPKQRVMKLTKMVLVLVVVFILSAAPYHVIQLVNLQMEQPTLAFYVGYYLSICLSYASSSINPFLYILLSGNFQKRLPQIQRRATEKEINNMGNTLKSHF

Sequence of Melanin-concentrating hormone receptor 1 (Q99705 as listed by the source): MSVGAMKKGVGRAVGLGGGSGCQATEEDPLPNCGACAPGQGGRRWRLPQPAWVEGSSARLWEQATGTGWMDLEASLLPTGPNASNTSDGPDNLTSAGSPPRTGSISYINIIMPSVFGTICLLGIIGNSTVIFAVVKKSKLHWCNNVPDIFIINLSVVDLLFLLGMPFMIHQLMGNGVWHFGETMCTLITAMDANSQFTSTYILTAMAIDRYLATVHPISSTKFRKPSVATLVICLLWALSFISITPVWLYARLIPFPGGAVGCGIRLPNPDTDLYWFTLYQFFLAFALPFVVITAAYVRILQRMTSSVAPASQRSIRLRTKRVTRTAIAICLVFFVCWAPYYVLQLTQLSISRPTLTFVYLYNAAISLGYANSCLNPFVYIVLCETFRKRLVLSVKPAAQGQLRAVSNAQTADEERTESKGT

As for `CSCC[C@@H]1NC(=O)[C@@H](NC(=O)[C@H](CCCNC(=N)N)NC(=O)[C@H](CCSC)NC(=O)[C@@H](NC(=O)[C@@H](N)CC(=O)O)[C@@H](C)O)CSSC[C@@H](C(=O)N[C@@H](Cc2c[nH]c3ccccc23)C(=O)N[C@@H](CCC(=O)O)C(=O)N[C@H](C(=O)O)C(C)C)NC(=O)[C@@H]2CCCN2C(=O)[C@H](CCCNC(=N)N)NC(=O)[C@H](Cc2ccc(O)cc2)NC(=O)[C@H](C(C)C)NC(=O)[C@H](CCCNC(=N)N)NC(=O)CNC(=O)[C@H](C(C)C)NC1=O` [Salmon MCH] (H-DTMRCMVGRVYRPCWEV-OH; disulfide 5-14), the Ki worked out at 0.2 nM in test [1] and 437 nM in test [2].

`CSCC[C@@H]1NC(=O)[C@@H](NC(=O)[C@H](CCCNC(=N)N)NC(=O)[C@H](CC(C)C)NC(=O)[C@H](CCSC)NC(=O)[C@H](CC(=O)O)NC(=O)[C@H](Cc2ccccc2)NC(=O)[C@@H](N)CC(=O)O)CSSC[C@@H](C(=O)N[C@@H](Cc2c[nH]c3ccccc23)C(=O)N[C@@H](CCC(N)=O)C(=O)N[C@H](C(=O)O)C(C)C)NC(=O)[C@@H]2CCCN2C(=O)[C@H](CCCNC(=N)N)NC(=O)[C@H](Cc2ccc(O)cc2)NC(=O)[C@H](C(C)C)NC(=O)[C@H](CCCNC(=N)N)NC(=O)CNC(=O)[C@H](CC(C)C)NC1=O` [hMCH] came in with a Ki in test [2] of 1.5 nM.

As a reminder, the Ki is a measure of affinity in units of concentration, obtained from inhibition or displacement. A higher Ki goes with weaker binding.
